In patent US20120329867A1 (SANOFI, priority 2010, published 2012):

System: AF/AFL patients
Test: EURIDIS and ADONIS post hoc analysis: adverse events and ECG changes by timing of amiodarone stop
Type: in vivo, human
Details: for QTc-Fridericia > or = 500 msec: unit assumed
Text: Methods: In EURIDIS and ADONIS studies mentioned in the article of the New England Journal of Medicine, 357, 10, Sep.
Results: Dronedarone decreased AF/AFL recurrence compared to placebo (HR=0.64 [95% CI 0.44-0.95], P=0.022) in this subgroup. […] All the results are included in the table 1 below.
In the table above, “A” means Amiodarone, “D” means” dronedarone, “PI” means Placebo, “n” is the number of patients tested with “PI” or “D”.

[1] = A stopped more than 2 days before randomization, n = 35
[2] = A stopped within 2 days before randomization, n = 98
[3] = No amiodarone treatment before randomization, n = 680

Q: How did the “Bradyarrhythmia (%) (under adverse events with drug discontinuation)” value [1] turn out when `CCCCc1oc2ccc(NS(C)(=O)=O)cc2c1C(=O)c1ccc(OCCCN(CCCC)CCCC)cc1` [Dronedarone, 2-n-Butyl-3-[4-(3-di-n-butylaminopropoxy)benzoyl]-5-methylsul phonamidobenzofuran] was run?
A: Its value is 0%.

Q: And the “Bradyarrhythmia (%) (under serious adverse events)” value [1]?
A: The value was 0%.

Q: What about the “PR-interval > or = 200 msec and increase > or = 20 msec versus baseline” value [1] of the same molecule?
A: The value was 22.9.

Q: What about the “Rate of Adverse Events with dronedarone discontinuation (%)” value (shortened to “Rate of Adverse Events … (%)”) [1] of the same molecule?
A: Its value is 20.0%.

Q: And the “Rate of Serious adverse events (%)” value [1]?
A: Its value is 17.1%.

Q: And the QTc-Fridericia > or = 500 msec [1]?
A: The QTc-Fridericia > or = 500 msec was 14.3%.

Q: What about the “Bradyarrhythmia (%) (under adverse events with drug discontinuation)” value [2] of the same molecule?
A: The value was 3.1%.

Q: What about the “Bradyarrhythmia (%) (under serious adverse events)” value [2] of the same molecule?
A: The value was 1%.

Q: And the “PR-interval > or = 200 msec and increase > or = 20 msec versus baseline” value [2]?
A: The value was 25.8.

Q: What about the “Rate of Adverse Events … (%)” value [2] of the same molecule?
A: The value was 8.2%.

Q: And the “Rate of Serious adverse events (%)” value [2]?
A: The value was 15.3%.

Q: What about the QTc-Fridericia > or = 500 msec [2] of the same molecule?
A: Its QTc-Fridericia > or = 500 msec is 7.9%.

Q: What about the “Bradyarrhythmia (%) (under adverse events with drug discontinuation)” value [3] of the same molecule?
A: The value was 0.7%.

Q: And the “Bradyarrhythmia (%) (under serious adverse events)” value [3]?
A: The value was 1.3%.

Q: And the “PR-interval > or = 200 msec and increase > or = 20 msec versus baseline” value [3]?
A: The value was 28.0.

Q: And the “Rate of Adverse Events … (%)” value [3]?
A: The value was 9.1%.

Q: What about the “Rate of Serious adverse events (%)” value [3] of the same molecule?
A: Its value is 13.7%.

Q: And the QTc-Fridericia > or = 500 msec [3]?
A: The QTc-Fridericia > or = 500 msec was 4.4%.

Q: What about the Tolerability (small patient cohort switched rapidly from A to D) of the same molecule?
A: The Tolerability was “good tolerability”.
